The nature of data set [1]: Stability in simulated intestinal fluid (SIF). It is filed as in vitro ADME. The settings on record: pig, simulated intestinal fluid (SIF) with porcine pancreatin, pH 6.8, 15 μL of 1 mM peptide stock in 285 μL SIF, 37 °C, samples 0 min-24 h quenched with 5% aqueous TFA, RP-HPLC/LC-MS peak area as % of time 0, exponential one-phase decay fit, read-out: t1/2 in SIF. As for the experimental part:
(§1) We exposed TFF3(C^57Acm) and TFF3 homodimer to simulated gastric fluid (SGF, containing pepsin, pH 1.3) and simulated intestinal fluid (SIF, containing pancreatic enzymes, pH 6.8), and monitored the mixture over 24 h by analytical RP-HPLC and MS. The N- and C-termini of TFF3 and its homodimer were readily truncated in both SGF and SIF (Figure 4A,B). In SGF, TFF3 was cleaved at Leu^6/Ser^7 followed by cleavage at Glu^54/Ala^55 (t1/2 < 5 min). In SIF, TFF3 was cleaved first at Thr^58/Phe^59 followed by cleavage at Leu^6/Ser^7, Glu^56/Cys^57, and Ala^55/Glu^56 (t1/2 < 5 min). TFF3 homodimer, in both SGF (t1/2 ∼ 40 min) and SIF (t1/2 < 5 min), was first broken down to monomeric TFF3 through simultaneous cleavage at Leu^6 and Glu^54 or Ala^55, eventually leading to the same metabolites as TFF3 (Figure 4B).
(§2) Simulated gastric fluid (SGF) was prepared by dissolving 20 mg of NaCl and 8 mg of pepsin in 70 μL of concentrated HCl (32%), and the volume was diluted to 10 mL with Milli-Q water (pH 1.3).[76],[77] Simulated intestinal fluid (SIF) was prepared by dissolving 68 mg of KH2PO4 in 500 μL of Milli-Q water followed by the addition of 800 μL of 0.2 M NaOH and 100 mg of porcine pancreatin, and the volume was adjusted to 10 mL with Milli-Q water (pH 6.8).[76],[77] Peptide stock solution (1 mM; 15 μL) was added to SGF (285 μL) or SIF (285 μL) and incubated at 37 °C. Samples (30 μL) from SGF and SIF were taken at 0, 5, 15, and 30 min and 1, 2, 4, 8, and 24 h timepoints and subsequently quenched with 30 μL of 0.2 M Na2CO3 (SGF) or 30 μL of 5% aqueous TFA (SIF). The samples were analyzed by analytical RP-HPLC (30 μL) and/or LC-MS (20 μL). The amount of peptide remaining was determined by measuring the peak area and expressing it as a % of the peak area at time 0. Peptide half-life (t1/2) was determined from the peptide degradation profiles using an exponential one-phase decay fit in Prism (version 7, GraphPad, La Jolla). LC-MS analysis was performed in a Q-Star Pulsar mass spectrometer (SCIEX, Ontario, Canada), and the raw data spectra were processed using the peptide reconstruction tool in the BioAnalyst software to identify the mass of the metabolites. The stability of the disulfide bonds was assessed through incubation of the peptides (10 μM) with 10 equiv of reduced glutathione (GSH; 100 μM) in sodium phosphate (50 mM) buffer at pH 7.2. Samples were taken at timepoints 0, 4, 8, and 24 h, quenched by adding 10% TFA, and analyzed by analytical RP-HPLC using an analytical C3 column (Agilent Zorbax SB-C3, 5 μm, 2.1 mm × 250 mm, 300 Å).

The target of the next data set is T1, CXCR4 (Homo sapiens, UniProt P61073).
T1 construct: expressed in transfected cells; host or cells: COS-7 (African green monkey), transient co-transfection with GαΔ6qi4myr
T1 sequence (P61073 whole entry): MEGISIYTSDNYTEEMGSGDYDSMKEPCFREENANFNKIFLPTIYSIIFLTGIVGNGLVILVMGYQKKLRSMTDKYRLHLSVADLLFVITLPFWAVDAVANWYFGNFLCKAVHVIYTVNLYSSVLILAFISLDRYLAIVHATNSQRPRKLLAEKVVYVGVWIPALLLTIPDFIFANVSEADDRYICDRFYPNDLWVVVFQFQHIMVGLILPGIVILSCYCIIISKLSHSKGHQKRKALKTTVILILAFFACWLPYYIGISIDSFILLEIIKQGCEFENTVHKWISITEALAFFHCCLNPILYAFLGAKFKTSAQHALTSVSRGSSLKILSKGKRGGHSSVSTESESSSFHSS
As to the kind of experiment: Inositol 1 phosphate (IP1) accumulation assay (HTRF) in COS-7 cells transfected with CXCR4. It is filed as cell-based. The note with it: 5 min preincubation with peptide (1 or 10 μM final), then CXCL12 10^-12 to 10^-5 M; COS-7/CXCR4; IP1 HTRF. An excerpt: CXCR4 is a member of the G protein-coupled receptor (GPCR) family[58] and proposed as a target receptor for TFF3 to mediate wound healing.[30],[39] We therefore pharmacologically characterized TFF3(C^57Acm) and TFF3 homodimer at CXCR4. We used a chimeric Gαiq protein to switch the pathway to the Gαq signaling, which leads to the activation of the phospholipase and allows measurement of CXCR4 activation through the production of inositol 1 phosphate (IP1).[61]−[63] We measured IP1 accumulation upon stimulation with TFF3(C^57Acm) and TFF3 homodimer in fibroblast-like COS-7 cells transiently transfected with CXCR4.[58] This is a competitive immunoassay, based on the HTRF technology, where native IP1 produced by cells compete with labeled IP1 (acceptor) for binding to anti-IP1-cryptate (donor). The specific signal (i.e., Förster resonance energy transfer, FRET) is inversely proportional to the concentration of IP1 in the sample. The calculation of the fluorescence ratio eliminates possible medium interferences.[64]
COS-7 cells (fibroblast-like cells from African green monkey) were transiently co-transfected with the CXCR4 C-terminally fused to eYFP in pVitro2 vector and the untagged chimeric G protein GαΔ6qi4myr in pcDNA3.1 plasmid using Metafectene Pro according to manufacturer’s protocol. The cells were cultured in DMEM with higher glucose and supplemented with 10% FCS without any antibiotics at 37 °C and 5% CO2 in 95% humidity. Cisbio IP-One Gq assay kit was used according to previous description with minor modifications to measure activity.[80] Briefly, a standard curve was prepared in HBSS (Hanks’ balanced salt solution) with 20 mM LiCl to determine the linear range of the assay and 10 000 cells/well were cultured overnight in a 384-well flat white plate (Greiner Bio-one GmbH, Frickenhausen, Germany). TFF3 and its homodimer as well as CXCL12 were diluted in HBSS containing 20 mM LiCl. Stimulation was carried out for 1 h in triplicate at 37 °C. Subsequently, 3 μL of IP1-d2 and 3 μL of Ab-cryptate in lysis buffer were added to the wells and incubated on a tumbler for 60 min at 25 °C. Fluorescence was then measured at 620 and 665 nm and the HTRF (homogeneous time-resolved fluorescence) ratio (665/620 nm) was calculated. Data analysis was performed with Prism (version 7, GraphPad, La Jolla). Tested compounds were normalized to CXCL12 wild type, with the highest HTRF ratio set to 0% and the lowest HTRF ratio set to 100% response. […] The final concentration range of 10^–12 to 10^–5 M to CXCL12 and 1 or 10 μM to TFF3(C^57Acm) and TFF3 homodimer was achieved by adding the compounds from a threefold concentrated stock solution.
On the technique in general: TR-FRET usually uses a lanthanide donor and a delayed reading to cut background.

Data set [2] in a line: Stability in simulated gastric fluid (SGF). It is filed as in vitro ADME, porcine. The settings on record: simulated gastric fluid (SGF) with pepsin, pH 1.3, 15 μL of 1 mM peptide stock in 285 μL SGF, 37 °C, samples 0 min-24 h quenched with 0.2 M Na2CO3, RP-HPLC/LC-MS peak area as % of time 0, exponential one-phase decay fit, read-out: t1/2 in SGF. The procedure: as §1, §2

A further data set concerns human erythrocytes. Description: Hemolysis analysis. Format: cell-based. The note with it: 1 h, 37 °C, absorbance 405 nm, 0.2–25 μM final concentration, two independent experiments. The text has this: Considering the therapeutic potential of TFF3, it was important to determine any cytotoxic and hemolytic effects early on to avoid problems in later stages of drug development. We therefore assessed cytotoxicity on HEK-293 cells and hemolytic effects in human erythrocytes. We treated the cells with TFF3(C^57Acm) and TFF3 homodimer and used resazurin, a blue dye that produces strong fluorescence when reduced by living cells, as the readout of the number of viable cells.[60] In the hemolytic assay, we evaluated hemoglobin release, an indicator of erythrocyte lysis, upon exposure to the peptides.
Monomeric and homodimeric TFF3 were serially diluted twofold in 0.9% NaCl and seeded (25 μL) in a 384-well polypropylene plate (0.2–25 μM final concentration). […] The cells were counted using a Neubauer hemocytometer and then diluted to 1 × 10^8/mL in 0.9% NaCl. […] Following incubation, the plates were centrifuged at 1000g for 10 min to pellet cells and debris and then 25 μL of the supernatant was transferred into a 384-well flat-bottom PS plate and absorbance (Abs) was read at 405 nm using a Tecan M1000 Pro monochromator plate reader. Percent hemolysis was calculated using the following equation: Hemolysis (%) = (Abssample – Absnegative/Abspositive – Absnegative) × 100. […]

Data set [3] has as its target chemokine receptor type 4 (CXCR4), C-terminally fused to eYFP (UniProt P61073).

Chain of C-X-C motif chemokine 12 (CXCL12), recombinant human, with an additional N-terminal methionine (P48061 other isoform, or with tags, fused parts or gaps): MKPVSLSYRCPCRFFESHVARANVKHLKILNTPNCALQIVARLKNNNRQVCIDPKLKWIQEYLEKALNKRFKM
Chain of chemokine receptor type 4 (CXCR4), C-terminally fused to eYFP (P61073 whole entry, the tested form may be a part): as the sequence (P61073 whole entry) above

Take `CC[C@H](C)[C@@H]1NC(=O)[C@H](CCCNC(=N)N)NC(=O)[C@H](CO)NC(=O)[C@H](CC(=O)O)NC(=O)[C@H](Cc2ccccc2)NC(=O)[C@@H]2CSSC[C@H](NC(=O)[C@H](CCC(N)=O)NC(=O)[C@H](CC(N)=O)NC(=O)[C@H](C)NC(=O)[C@H](CO)NC(=O)[C@H](CC(C)C)NC(=O)CNC(=O)[C@@H](NC(=O)[C@H](Cc3ccc(O)cc3)NC(=O)[C@H](CCC(=O)O)NC(=O)[C@@H](N)CCC(=O)O)C(C)C)C(=O)N[C@@H](C)C(=O)N[C@@H](C(C)C)C(=O)N3CCC[C@H]3C(=O)N[C@@H](C)C(=O)N[C@@H](CCCCN)C(=O)N[C@@H](CC(=O)O)C(=O)N[C@@H](CCCNC(=N)N)C(=O)N[C@@H](C(C)C)C(=O)N[C@@H](CC(=O)O)C(=O)N[C@H]3CSSC[C@H](NC(=O)CNC(=O)[C@H](CCCNC(=N)N)NC(=O)[C@H](CC(N)=O)NC(=O)[C@H](CC(N)=O)NC(=O)[C@H](CSSC[C@@H](C(=O)N[C@@H](Cc4ccccc4)C(=O)N[C@@H](CCCCN)C(=O)N4CCC[C@H]4C(=O)N[C@@H](CC(C)C)C(=O)N[C@@H](CCC(N)=O)C(=O)N[C@@H](CCC(=O)O)C(=O)N[C@@H](C)C(=O)N[C@@H](CCC(=O)O)C(=O)N[C@@H](CSSC[C@H](NC(=O)[C@H](CCC(=O)O)NC(=O)[C@H](C)NC(=O)[C@H](CCC(=O)O)NC(=O)[C@H](CCC(N)=O)NC(=O)[C@H](CC(C)C)NC(=O)[C@@H]4CCCN4C(=O)[C@H](CCCCN)NC(=O)[C@H](Cc4ccccc4)NC(=O)[C@@H]4CSSC[C@@H]5NC(=O)[C@H](CCC(=O)O)NC(=O)[C@H](CCCCN)NC(=O)[C@@H]6CCCN6C(=O)[C@H]([C@@H](C)O)NC(=O)[C@H](C(C)C)NC(=O)[C@H](Cc6c[nH]cn6)NC(=O)[C@@H]6CCCN6C(=O)[C@H](Cc6ccc(O)cc6)NC(=O)CNC(=O)[C@@H]6CSSC[C@H](NC(=O)CNC(=O)[C@H](CCCNC(=N)N)NC(=O)[C@H](CC(N)=O)NC(=O)[C@H](CC(N)=O)NC5=O)C(=O)N[C@@H](CSSC[C@H](NC(=O)[C@H](CCC(N)=O)NC(=O)[C@H](CC(N)=O)NC(=O)[C@H](C)NC(=O)[C@H](CO)NC(=O)[C@H](CC(C)C)NC(=O)CNC(=O)[C@@H](NC(=O)[C@H](Cc5ccc(O)cc5)NC(=O)[C@H](CCC(=O)O)NC(=O)[C@@H](N)CCC(=O)O)C(C)C)C(=O)N[C@@H](C)C(=O)N[C@@H](C(C)C)C(=O)N5CCC[C@H]5C(=O)N[C@@H](C)C(=O)N[C@@H](CCCCN)C(=O)N[C@@H](CC(=O)O)C(=O)N[C@@H](CCCNC(=N)N)C(=O)N[C@@H](C(C)C)C(=O)N[C@@H](CC(=O)O)C(=O)N6)C(=O)N[C@@H](Cc5ccccc5)C(=O)N[C@@H](CC(=O)O)C(=O)N[C@@H](CO)C(=O)N[C@@H](CCCNC(=N)N)C(=O)N[C@@H]([C@@H](C)CC)C(=O)N5CCC[C@H]5C(=O)NCC(=O)N[C@@H](C(C)C)C(=O)N5CCC[C@H]5C(=O)N[C@@H](Cc5c[nH]c6ccccc56)C(=O)N4)C(=O)N[C@H](C(=O)N[C@@H](Cc4ccccc4)C(=O)O)[C@@H](C)O)C(=O)N[C@H](C(=O)N[C@@H](Cc4ccccc4)C(=O)O)[C@@H](C)O)NC(=O)[C@H](Cc4c[nH]c5ccccc45)NC(=O)[C@@H]4CCCN4C(=O)[C@H](C(C)C)NC(=O)CNC(=O)[C@@H]4CCCN4C1=O)NC(=O)[C@H](CCC(=O)O)NC(=O)[C@H](CCCCN)NC(=O)[C@@H]1CCCN1C(=O)[C@H]([C@@H](C)O)NC(=O)[C@H](C(C)C)NC(=O)[C@H](Cc1c[nH]cn1)NC(=O)[C@@H]1CCCN1C(=O)[C@H](Cc1ccc(O)cc1)NC(=O)CNC3=O)C(=O)N2` [TFF3 homodimer]: the half-life at 50 μM in data set [1] was below 5 min; in data set [2], around 40 min. Moreover, the “effect on the EC50 of CXCL12 at CXCR4 (antagonism)” value at CXCR4 is “not affected”. Also, the “concentration up to which no hemolytic effect was displayed” value in the data set on human erythrocytes was above 25 µM.

As for “C-X-C motif chemokine 12 (CXCL12), recombinant human, with an additional N-terminal methionine (from UniProt P48061 22-93) (ligand)”, in data set [3], the EC50 of IP1 accumulation (HTRF, IP-One Gq kit) in COS-7 cells transfected with CXCR4 and a chimeric G protein; CXCL12 10^-12 to 10^-5 M was determined as 5.9 nM.

Source of the values: article PMC8273887 (Journal of Medicinal Chemistry, 2021).
